Assay results taken from patent publication US20130029970A1 (priority 2009, published 2013).
Like-named read-outs stand apart in the source and are kept apart here.

Tests used:
[1] = molecular target: T1, recombinant human cannabinoid receptor CB1 (Homo sapiens, UniProt P21554); experiment: Cannabinoid receptor radioligand binding assay, [3H]-CP 55,940 displacement, hCB1
T1 construct: (cDNA clone) CNR01L000
Outline: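 Membranes from HEK-293 cells stably expressing human CB1, 2-10 μg protein, incubated 90 min at room temperature with 0.5 nM [3H]-CP 55,940 in Tris-HCl pH 7.5, MgCl2, EDTA and 0.1% fatty-acid-free BSA. Bound radioactivity counted after rapid filtration; nonspecific binding defined with 1 μM unlabeled CP 55,940.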

[2] = molecular target: T2, human CB2 receptors (Homo sapiens, UniProt P34972); experiment: cAMP assay in HEK-293 cells, hCB2 agonist; format: cell-based
T2 construct: (cDNA clone) CNR0200000
T2 sequence (P34972 whole entry): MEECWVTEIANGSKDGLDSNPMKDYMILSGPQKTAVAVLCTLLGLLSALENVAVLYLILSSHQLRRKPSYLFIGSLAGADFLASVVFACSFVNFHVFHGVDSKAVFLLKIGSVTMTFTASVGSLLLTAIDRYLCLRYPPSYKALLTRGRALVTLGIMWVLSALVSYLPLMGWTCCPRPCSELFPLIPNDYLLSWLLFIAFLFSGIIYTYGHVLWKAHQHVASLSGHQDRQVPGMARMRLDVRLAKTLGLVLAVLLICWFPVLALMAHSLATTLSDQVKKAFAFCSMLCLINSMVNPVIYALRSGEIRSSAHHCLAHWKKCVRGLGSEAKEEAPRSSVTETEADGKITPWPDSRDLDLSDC
Outline: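 HEK-293 cells stably expressing human CB2, suspended at 1,500,000 cells/mL in HBSS with 10 mM HEPES and 0.1% fatty-acid-free BSA, exposed to test compound plus forskolin (90 uM in the 3× compound solution) for 30 min at 37° C.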

[3] = inhibition of forskolin-stimulated cAMP, HEK-293 cells, read-out: hCB2 EC50 (cAMP ag)

T1 sequence (P21554 whole entry): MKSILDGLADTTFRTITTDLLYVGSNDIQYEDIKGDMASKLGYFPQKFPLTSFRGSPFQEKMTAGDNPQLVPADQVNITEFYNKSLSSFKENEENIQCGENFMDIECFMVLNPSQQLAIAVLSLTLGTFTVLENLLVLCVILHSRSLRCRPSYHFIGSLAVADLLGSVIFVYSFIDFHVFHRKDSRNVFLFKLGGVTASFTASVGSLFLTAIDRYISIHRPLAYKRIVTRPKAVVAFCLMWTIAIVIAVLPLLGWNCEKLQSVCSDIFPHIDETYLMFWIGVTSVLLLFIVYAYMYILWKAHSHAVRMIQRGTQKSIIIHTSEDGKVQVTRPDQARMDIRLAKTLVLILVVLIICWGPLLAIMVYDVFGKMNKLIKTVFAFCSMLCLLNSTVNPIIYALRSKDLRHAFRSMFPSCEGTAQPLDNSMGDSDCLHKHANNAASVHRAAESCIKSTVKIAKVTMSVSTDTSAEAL

SMILES	IC50 [1]	EC50 [2]	EC50 [2, 3]
COc1ccc(C(=O)c2cc3cc(C)n(CCN4CCOCC4)c3s2)cc1 [Compound 36, (4-methoxyphenyl)(5-methyl-6-(2-morpholinoethyl)-6H-thieno[2,3-b]pyrrol-2-yl)methanone]	1000 to 10000 nM	< 100 nM	
Cc1cc2cc(C(=O)c3cccc(Cl)c3Cl)sc2n1S(=O)(=O)N(C)C [Compound 41, 2-(2,3-Dichlorobenzoyl)-N,N,5-trimethyl-6H-thieno[2,3-b]pyrrole-6-sulfonamide]	100 to 1000 nM	< 100 nM	
Cc1cc2cc(C(=O)c3ccccc3N)sc2n1CCN1CCOCC1 [Compound 48, (2-Aminophenyl)(5-methyl-6-(2-morpholinoethyl)-6H-thieno[2,3-b]pyrrol-2-yl)methanone]	> 10000 nM	< 100 nM	
COCCn1c(C)cc2cc(C(=O)c3ccc(OC)cc3)sc21 [Compound 49, (6-(2-Methoxyethyl)-5-methyl-6H-thieno[2,3-b]pyrrol-2-yl)(4-methoxyphenyl)methanone]	> 10000 nM	100 to 1000 nM	
COc1ccc(C(=O)c2cc3cc(C)n(CCN4CCOC4=O)c3s2)cc1 [Compound 50, 3-(2-(2-(4-Methoxybenzoyl)-5-methyl-6H-thieno[2,3-b]pyrrol-6-yl)ethyl)oxazolidin-2-one]	> 10000 nM	< 100 nM	
CCOc1ccc(C(=O)c2cc3cc(C)n(CCN4CCOCC4)c3s2)cc1 [Compound 55, (4-Ethoxyphenyl)(5-methyl-6-(2-morpholinoethyl)-6H-thieno[2,3-b]pyrrol-2-yl)methanone]	1000 to 10000 nM	< 100 nM	
Cc1cc2cc(C(=O)c3ccc(N(C)C)cc3)sc2n1CCN1CCOCC1 [Compound 59, (4-(Dimethylamino)phenyl)(5-methyl-6-(2-morpholinoethyl)-6H-thieno[2,3-b]pyrrol-2-yl)methanone]	> 10000 nM	100 to 1000 nM	
Cc1cc2cc(C(=O)c3ccc(F)cc3Cl)sc2n1CCN1CCOCC1 [Compound 64, (2-Chloro-4-fluorophenyl)(5-methyl-6-(2-morpholinoethyl)-6H-thieno[2,3-b]pyrrol-2-yl)methanone]	1000 to 10000 nM	< 100 nM	
Cc1cc2cc(C(=O)c3ccc(OC(F)(F)F)cc3)sc2n1CCN1CCOCC1 [Compound 65, (5-Methyl-6-(2-morpholinoethyl)-6H-thieno[2,3-b]pyrrol-2-yl)(4-(trifluoromethoxy)phenyl)methanone]	1000 to 10000 nM	100 to 1000 nM	
COc1ccc(C(=O)c2cc3cc(C)n(CCN4CCOCC4)c3s2)c(F)c1 [Compound 68, (2-Fluoro-4-methoxyphenyl)(5-methyl-6-(2-morpholinoethyl)-6H-thieno[2,3-b]pyrrol-2-yl)methanone]	1000 to 10000 nM	< 100 nM	
COc1ccc(C(=O)c2cc3cc(C)n(CCNS(C)(=O)=O)c3s2)cc1 [Compound 71, N-(2-(2-(4-Methoxybenzoyl)-5-methyl-6H-thieno[2,3-b]pyrrol-6-yl)ethyl)methanesulfonamide]	> 10000 nM	100 to 1000 nM	
CCOC(=O)CCn1c(C)cc2cc(C(=O)c3ccc(OC)cc3)sc21 [Compound 72, Ethyl 3-(2-(4-methoxybenzoyl)-5-methyl-6H-thieno[2,3-b]pyrrol-6-yl)propanoate]	> 10000 nM	100 to 1000 nM	
Cc1ccc(C(=O)c2cc3cc(C)n(CCN4CCOCC4)c3s2)c(F)c1 [Compound 80, (2-Fluoro-4-methylphenyl)(5-methyl-6-(2-morpholinoethyl)-6H-thieno[2,3-b]pyrrol-2-yl)methanone]	1000 to 10000 nM	< 100 nM	
COc1ccc(C(=O)c2cc3cc(C)n(CCN4CCCC4)c3s2)cc1 [Compound 83, (4-Methoxyphenyl)(5-methyl-6-(2-(pyrrolidin-1-yl)ethyl)-6H-thieno[2,3-b]pyrrol-2-yl)methanone]	1000 to 10000 nM	< 100 nM	
COc1ccc(C(=O)c2cc3cc(C)n(CCN4CCOCC4)c3s2)c(C)c1 [Compound 88, (4-Methoxy-2-methylphenyl)(5-methyl-6-(2-morpholinoethyl)-6H-thieno[2,3-b]pyrrol-2-yl)methanone]	100 to 1000 nM	< 100 nM	
CCOc1ccc(C(=O)c2cc3cc(C)n(CCN4CCOCC4)c3s2)c(F)c1 [Compound 89, (4-Ethoxy-2-fluorophenyl)(5-methyl-6-(2-morpholinoethyl)-6H-thieno[2,3-b]pyrrol-2-yl)methanone]	1000 to 10000 nM	< 100 nM	
COc1ccc(C(=O)c2cc3cc(C)n(CCN4CCCCC4)c3s2)c(Cl)c1 [Compound 90, (2-Chloro-4-methoxyphenyl)(5-methyl-6-(2-(piperidin-1-yl)ethyl)-6H-thieno[2,3-b]pyrrol-2-yl)methanone]	100 to 1000 nM	< 100 nM	
COc1ccc(C(=O)c2cc3cc(C)n(CCN4CCCC4)c3s2)c(F)c1 [Compound 92, (2-Fluoro-4-methoxyphenyl)(5-methyl-6-(2-(pyrrolidin-1-yl)ethyl)-6H-thieno[2,3-b]pyrrol-2-yl)methanone]	1000 to 10000 nM	< 100 nM	
COc1ccc(C(=O)c2cc3cc(C)n(CCN4CCCC4)c3s2)c(Cl)c1 [Compound 93, (2-Chloro-4-methoxyphenyl)(5-methyl-6-(2-(pyrrolidin-1-yl)ethyl)-6H-thieno[2,3-b]pyrrol-2-yl)methanone]	100 to 1000 nM	< 100 nM	
COc1ccc(C(=O)c2cc3cc(C)n(CCCNS(C)(=O)=O)c3s2)c(C)c1 [Compound 96, N-(3-(2-(4-Methoxy-2-methylbenzoyl)-5-methyl-6H-thieno[2,3-b]pyrrol-6-yl)propyl)methanesulfonamide]	1000 to 10000 nM	< 100 nM	
COc1ccc(C(=O)c2cc3cc(C)n(CCN4CCCCC4)c3s2)c(F)c1 [Compound 98, (2-Fluoro-4-methoxyphenyl)(5-methyl-6-(2-(piperidin-1-yl)ethyl)-6H-thieno[2,3-b]pyrrol-2-yl)methanone]	1000 to 10000 nM	< 100 nM	
COc1ccc(C(=O)c2cc3cc(C)n(CCN4CCCCC4)c3s2)c(O)c1 [Compound 99, (2-Hydroxy-4-methoxyphenyl)(5-methyl-6-(2-(piperidin-1-yl)ethyl)-6H-thieno[2,3-b]pyrrol-2-yl)methanone]	1000 to 10000 nM	< 100 nM	
COc1ccc(C(O)c2cc3cc(C)n(CCN4CCOCC4)c3s2)cc1 (stereo not shown) [Compound 100, (4-Methoxyphenyl)(5-methyl-6-(2-morpholinoethyl)-6H-thieno[2,3-b]pyrrol-2-yl)methanol]	1000 to 10000 nM		< 100 nM
COc1ccc(C(C)(O)c2cc3cc(C)n(CCN4CCOCC4)c3s2)cc1 (stereo not shown) [Compound 101, 1-(4-methoxyphenyl)-1-(5-methyl-6-(2-morpholinoethyl)-6H-thieno[2,3-b]pyrrol-2-yl)ethanol]	1000 to 10000 nM		< 100 nM
COc1ccc(C(=O)c2cc3cc(C)n(CCCCNS(C)(=O)=O)c3s2)cc1 [Compound 102, N-(4-(2-(4-Methoxybenzoyl)-5-methyl-6H-thieno[2,3-b]pyrrol-6-yl)butyl)methanesulfonamide]	1000 to 10000 nM		< 100 nM
COc1ccc(Cn2c(C)cc3cc(C(=O)c4ccc(OC)cc4)sc32)cc1 [Compound 103, (6-(4-Methoxybenzyl)-5-methyl-6H-thieno[2,3-b]pyrrol-2-yl)(4-methoxyphenyl)methanone]	1000 to 10000 nM	100 to 1000 nM	
